Test system: cell line of mouse fibroblasts (NIH/3T3)
Experiment: Cytotoxicity test (MTT, ISO 10993) on NIH/3T3 fibroblasts
Format: cell-based
Settings: absorbance at 540 nm, mean (±SD)
Experimental: The cytotoxicity of the products of the invention is evaluated with the cell line of mouse fibroblasts (NIH/3T3).
The test is performed according to ISO 10993 (2009). The cell suspension is plated at a concentration of 2×10^4 cells per well and delivered into a cell culture dish of 96 wells. Each well receives 200 μl DMEM (Dulbecco's Modified Eagle Medium) supplemented with 10% Fetal Bovine Serum. The plate is then incubated at 37° C. in an atmosphere containing 5% CO2 for 24 hours. In control wells, 200 μl DMEM (Dulbecco's Modified Eagle Medium) is supplemented with fetal bovine serum 10%. After removal of the test extracts, 200 μl PBS (phosphate buffered saline) and 20 μl of MTT (tetrazolium salt [3-(4,5-dimetltiazol-2-yl)-2,5-diphenyltetrazolium bromide] are added to each well. The plate is incubated in a room without light for 24 hours at 37° C. After that, MTT is aspirated and 200 μl dimethylsulfoxide (DMSO) is added to each well. Thereafter, absorbance at 540 nm is measured using a spectrophotometer and the results were analyzed statistically.
The data are tabulated and submitted to Kruskal-Wallis nonparametric statistical analysis and Tukey's complementary test (p<0.05).
The results of cytotoxicity testing are illustrated in FIG. 10.

CCOC(=O)c1ccc(N)cc1 [Example P20, benzocaine]
ABSORBANCE (540 nm): 0.511 (±0.032)^A

Reference: patent US10722586B2, “Filmogenic compositions for topical anaesthetic bioadhesives—tabs, for controlled release of active principles and topical anaesthetic bioadhesives” (UNIVERSIDADE FEDERAL DE PELOTAS, priority 2014, dated 2020)
